Measured values reported in publication PMC9611471 (Pharmaceutics, 2022).

What was measured:
A549 cells [1] = assay: SK1 and SK2 protein (Western blotting) and mRNA (qRT-PCR) levels; format: cell-based, human; conditions: 5 and 10 μM, 24 h
Method: Western blotting measured changes in apoptosis-related proteins (PARP, BAX, BCL-2, Caspase-3). A549 cells (1 × 10^6 cells per well in 6-well plates) were incubated for 24 h. Cells were treated with concentrations of the compounds and incubated for 24 h. Then, cells were dissolved on ice for two hours with a lysis buffer containing a mixture of protease and phosphatase inhibitors. The lysate was centrifuged at 12,000× g for 15 min at 4 °C, and the supernatant was collected. Protein concentrations were measured using a bicinchoninic acid protein assay kit. Total protein was separated by 8–10% sodium dodecyl sulfate–polyacrylamide gel electrophoresis (SDS-PAGE) and transferred onto polyvinylidene fluoride (PVDF) membranes. After being blocked with 5% skim milk, membranes were probed overnight at 4 °C with primary antibodies against SK1, SK2, PARP, BAX, Bcl-2, Caspase-3, and β-actin. Then, the membranes were incubated with subsequent secondary antibodies at room temperature. Then, the protein expressions were measured by Amersham Imager 680 (GE Healthcare, Leiden, WZ, The Netherlands).
RNAs were isolated using the Trizol/chloroform reagent (Invitrogen, Waltham, MA, USA). […] For quantitative analysis of various genes, qRT-PCR was performed using the Bio-Rad CFX384 Touch Real-time PCR detection system (Bio-Rad, Hercules, CA, USA) with SYBR Premix Ex Taq (Takara Bio, Shiga, Japan) for 40 cycles.

A549 cells [2] = assay: Annexin V-FITC apoptosis analysis; format: cell-based, human; conditions: 24 h
Method: A549 cells (1 × 10^5 cells) were seeded in into a 12-well plate. […] After harvesting the cells, the binding buffer was added and then incubated with annexin-V-FITC and PI at room temperature for 15 min. The stained cells were analyzed with MACS Quant Analyzer 10 Flow Cytometer (Miltenyi Biotec, Bergisch Gladbach, Germany) within 1 h.

A549 cells [3] = assay: Cytotoxicity after SK1/SK2 siRNA transfection; format: cell-based, human; conditions: A549 cells transfected with siSK1, siSK2; 24 h
Method: Control small interfering RNA (siControl) was obtained from Bioneer (Daejeon, Korea), while SK1 (sc-44114) and SK2 (sc-39225) siRNA (siSK1 and siSK2) were purchased from Santa Cruz Biotechnology (Dallas, TX, USA). Cells were transfected using Lipofectamine RNAiMAX Reagent (Invitrogen, Carlsbad, CA, USA) according to the manufacturer’s instructions. Transfection efficiency was monitored by Western blot. After 24 h of infection, cytotoxicity was measured using infected cells.

[4] = In vitro metabolic stability, rat liver microsomes; format: in vitro ADME; conditions: pooled liver microsomes, NADPH, 37 °C, 0 and 30 min
[5] = test system: A549 cell-induced tumor xenograft; assay: A549 tumor xenograft in BALB/c nude mice; format: in vivo; conditions: vs control group
Method: Five-week-old BALB/c-nu/nu male mice were purchased from Orient Bio Inc. (Seongnam, Gyeonggi-do, Korea). The mice were housed in a climate-controlled room (22 ± 2 °C, 50 ± 10% relative humidity) and specific pathogen-free conditions with a 12 h light/dark cycle and adapted for a week with free access to food and water. Cages, bedding, and drinking water were autoclaved and changed regularly. The cancer cell suspension {3 × 10^7 cells/ 150 μL phosphate-buffered saline (PBS)} was inoculated subcutaneously into the right flank. Measurable tumors were found 7–8 days after cell inoculation, and tumors grew in 90% of the injection site two weeks later. The mice were randomly divided into test groups (12 mice per group) when the tumor volume reached 100 mm^2 about two weeks after the inoculation (experimental day 0). The control group (vehicle-treated group) and Compound 4 (5 mg/kg) were administered i.p. 3 times a week. The formulation of Compound 4 was prepared in a mixture of 10% DMSO + 90% PBS. The tumor growth rate and body weights in each of the two groups were measured every three days using a Vernier caliper and a digital weighing balance, respectively. Tumor volume was calculated as l × b^2 × 0.52, where l is the length and b is the width. Four weeks after treatment, blood samples were drawn from the orbital sinus under anesthesia, the mice were sacrificed by cervical dislocation, and the tumors were dissected for further examination.
The paraffin-embedded tumor specimens were deparaffinized with xylene and a series of different alcohol concentrations, rehydrated, and antigen retrieval was carried out with sodium citrate buffer (0.05 M with PH 6). After blocking with 5% BSA, the slides were incubated overnight at 4 °C with KI67 (Cell Signaling Technology, Danvers, MA, USA), Caspase-3 (Abcam, Cambridge, UK), and S1P antibodies (Echelon Biosciences inc, Salt Lake City, UT). The slides were washed with 1× TBST (TBST with PH 8.4) plus 0.5 percent Triton X-100 (Sigma-Aldrich, St. Louis, MO, USA), then secondary antibodies were added in 1:500 ratios (Invitrogen-Alexa Fluor plus 555, 488, and Alexa FluorTM546), and nuclear staining was performed with Hoechst (Invitrogen, Carlsbad, CA, USA), mounted with a flurosave reagent (EMD Millipore Crop, Billerica, MA, USA). Stain sections were observed and photographed using a confocal microscope (Carl-Zeiss-LSM710NLO and LSM780NLO), and results were analyzed using the Carl-Zeiss ZEN2 software and quantification was done by using the ImageJ software, respectively.

A549 and H1299 cells = assay: Cell proliferation / viability assay (EZ-CYTOX)
[6] = immunohistochemistry, 5 mg/kg i.p.

## Cc1cc(CN(Cc2cc(C)cc(CS(=O)(=O)c3ccccc3)c2)c2ccc(CCN3CCC(CO)CC3)cc2)cc(CS(=O)(=O)c2ccccc2)c1 [Compound 4, (1-(4-(Bis(3-methyl-5-((phenylsulfonyl)methyl)benzyl)amino)phenethyl)piperidin-4-yl)methanol]
A549 cells [1]
  expression of proteins and mRNAs of SK1 and SK2: did not affect
A549 cells [2]; 5 μM
  apoptotic effect (annexin-V): significant effect
A549 cells [2]; 10 μM
  apoptotic effect (annexin-V): significantly higher apoptotic effect compared to PF-543
A549 cells [3]
  dependence of cytotoxic efficacy on SK1/SK2 (siRNA knockdown): more dependent on SK1, although SK2 is also partially involved
[4]
  MS RLM: 22.9
[5]; 5 mg/kg i.p. 3 times a week, 29 days
  tumor volume: statistically significant inhibitory effect on the tumor volume
[5]; 5 mg/kg i.p. 3 times a week, day 29
  tumor weight: significant decrease in the tumor weight
[5]; 5 mg/kg i.p. 3 times a week
  weight of animals: no difference in the weight
[5]; [6]
  KI67 level in tumor sections (proliferation marker): decrease in the level of KI67
  S1P levels in the tumor section: decreased
  caspase-3 level in tumor sections (apoptosis marker): increased
A549 and H1299 cells; 20 and 40 μM, A549 and H1299 cells
  cytotoxic effects compared with FTY720: cytotoxic effects similar to those of FTY720
A549 and H1299 cells; Homo sapiens, 24 h, read-out: IC50 (cytotoxic effect)
  IC50: 7.75 µM
